According to ChEMBL document CHEMBL5143515, “Identification of new halogen-containing 2,4-diphenyl indenopyridin-5-one derivative as a boosting agent for the anticancer responses of clinically available topoisomerase inhibitors” (Eur J Med Chem, 2022):

Assays:
[1] = biological target: T1, DNA topoisomerase 1 (Homo sapiens) (UniProt P11387); assay: Inhibition of recombinant human topoisomerase 1 assessed as relaxation of supercoiled plasmid pBR322 DNA at 100 uM by agarose gel electrophoresis (reference value: […]%)
T1 sequence (whole entry): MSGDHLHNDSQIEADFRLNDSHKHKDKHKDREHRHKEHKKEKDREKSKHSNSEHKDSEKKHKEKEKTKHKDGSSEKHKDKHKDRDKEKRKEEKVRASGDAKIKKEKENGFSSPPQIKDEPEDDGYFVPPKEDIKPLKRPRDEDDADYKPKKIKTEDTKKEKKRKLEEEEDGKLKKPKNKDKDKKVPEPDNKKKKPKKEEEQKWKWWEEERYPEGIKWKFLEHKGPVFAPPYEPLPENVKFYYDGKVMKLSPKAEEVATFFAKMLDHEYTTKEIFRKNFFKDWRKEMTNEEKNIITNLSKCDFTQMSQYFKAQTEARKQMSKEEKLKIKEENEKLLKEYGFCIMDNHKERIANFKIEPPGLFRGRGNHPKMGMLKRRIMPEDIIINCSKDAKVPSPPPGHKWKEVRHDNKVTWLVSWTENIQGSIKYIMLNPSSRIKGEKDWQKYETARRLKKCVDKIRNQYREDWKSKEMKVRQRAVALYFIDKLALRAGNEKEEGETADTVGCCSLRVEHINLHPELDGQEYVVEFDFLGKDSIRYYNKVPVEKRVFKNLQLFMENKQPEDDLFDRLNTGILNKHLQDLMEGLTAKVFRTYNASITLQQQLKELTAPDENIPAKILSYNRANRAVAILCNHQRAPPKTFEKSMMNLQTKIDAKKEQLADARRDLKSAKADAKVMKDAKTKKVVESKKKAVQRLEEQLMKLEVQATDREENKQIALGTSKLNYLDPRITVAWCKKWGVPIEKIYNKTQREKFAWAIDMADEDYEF

[2] = biological target: DNA topoisomerase 2-alpha (Homo sapiens) (UniProt P11388); assay: Inhibition of recombinant human topoisomerase 2alpha assessed as relaxation of supercoiled plasmid pBR322 DNA at 100 uM by agarose gel electrophoresis (reference value: 84.9%)
Chain of DNA topoisomerase 2-alpha (Homo sapiens) (P11388 whole entry): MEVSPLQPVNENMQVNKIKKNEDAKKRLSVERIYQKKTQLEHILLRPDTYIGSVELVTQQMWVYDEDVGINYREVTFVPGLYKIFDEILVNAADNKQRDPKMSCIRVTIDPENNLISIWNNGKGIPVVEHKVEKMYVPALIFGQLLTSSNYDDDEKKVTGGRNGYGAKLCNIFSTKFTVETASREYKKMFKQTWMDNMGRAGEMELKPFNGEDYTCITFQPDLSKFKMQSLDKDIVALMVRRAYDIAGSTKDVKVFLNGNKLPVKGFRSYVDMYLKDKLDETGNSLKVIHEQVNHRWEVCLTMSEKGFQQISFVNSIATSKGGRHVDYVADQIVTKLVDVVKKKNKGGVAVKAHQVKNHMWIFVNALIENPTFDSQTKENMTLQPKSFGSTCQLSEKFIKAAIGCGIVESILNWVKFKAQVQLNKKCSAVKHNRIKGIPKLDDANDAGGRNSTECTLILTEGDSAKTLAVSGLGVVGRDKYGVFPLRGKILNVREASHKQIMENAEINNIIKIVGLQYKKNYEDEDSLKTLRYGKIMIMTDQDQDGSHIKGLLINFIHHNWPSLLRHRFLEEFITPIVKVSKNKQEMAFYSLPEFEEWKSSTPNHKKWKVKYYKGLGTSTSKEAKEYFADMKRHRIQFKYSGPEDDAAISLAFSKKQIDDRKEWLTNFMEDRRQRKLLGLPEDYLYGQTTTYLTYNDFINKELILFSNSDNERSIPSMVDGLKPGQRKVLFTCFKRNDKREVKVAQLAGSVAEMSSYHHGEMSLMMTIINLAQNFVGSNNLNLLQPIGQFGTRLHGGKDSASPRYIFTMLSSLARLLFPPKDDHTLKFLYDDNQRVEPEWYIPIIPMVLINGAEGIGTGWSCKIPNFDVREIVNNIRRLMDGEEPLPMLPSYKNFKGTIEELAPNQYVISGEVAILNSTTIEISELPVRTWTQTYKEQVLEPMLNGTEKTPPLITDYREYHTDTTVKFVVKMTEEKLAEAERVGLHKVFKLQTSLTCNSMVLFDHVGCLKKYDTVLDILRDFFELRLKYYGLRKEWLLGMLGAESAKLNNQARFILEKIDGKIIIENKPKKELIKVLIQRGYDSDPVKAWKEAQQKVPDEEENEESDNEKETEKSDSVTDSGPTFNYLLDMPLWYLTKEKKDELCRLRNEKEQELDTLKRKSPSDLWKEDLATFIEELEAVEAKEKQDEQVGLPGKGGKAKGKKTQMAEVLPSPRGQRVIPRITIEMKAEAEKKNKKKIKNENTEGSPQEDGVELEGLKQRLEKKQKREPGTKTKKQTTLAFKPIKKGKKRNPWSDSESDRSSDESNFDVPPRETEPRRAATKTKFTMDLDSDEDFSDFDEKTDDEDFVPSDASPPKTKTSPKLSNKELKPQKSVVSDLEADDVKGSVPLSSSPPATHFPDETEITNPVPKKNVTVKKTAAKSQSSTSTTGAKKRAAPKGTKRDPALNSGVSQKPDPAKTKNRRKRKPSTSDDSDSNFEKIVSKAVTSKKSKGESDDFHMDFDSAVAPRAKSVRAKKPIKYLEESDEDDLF

[3] = biological target: DNA topoisomerase 2-alpha (Homo sapiens) (UniProt P11388); assay: Inhibition of recombinant human topoisomerase 2alpha assessed as relaxation of supercoiled plasmid pBR322 DNA at 20 uM by agarose gel electrophoresis relative to control
DU-145 = assay: Antiproliferative activity against human DU-145 cells after 72 hrs by EZ-Cytox colorimetric assay; assay type: functional, cell-based; conditions: DU-145, 72 h
HCT-15 = assay: Antiproliferative activity against human HCT-15 cells after 72 hrs by EZ-Cytox colorimetric assay; assay type: functional, cell-based; conditions: HCT-15, 72 h
HeLa = assay: Antiproliferative activity against human HeLa cells after 72 hrs by EZ-Cytox colorimetric assay; assay type: functional, cell-based
T47D = assay: Antiproliferative activity against human T47D cells after 72 hrs by EZ-Cytox colorimetric assay; assay type: functional, cell-based
[4] = biological target: T1, DNA topoisomerase 1 (Homo sapiens); assay: Inhibition of recombinant human topoisomerase 1 assessed as relaxation of supercoiled plasmid pBR322 DNA at 100 uM by agarose gel electrophoresis (reference value: 81.9%)
[5] = biological target: T1, DNA topoisomerase 1 (Homo sapiens); assay: Inhibition of recombinant human topoisomerase 1 assessed as relaxation of supercoiled plasmid pBR322 DNA at 20 uM by agarose gel electrophoresis (reference value: 38.3%)
[6] = biological target: DNA topoisomerase 2-alpha (Homo sapiens) (UniProt P11388); assay: Inhibition of recombinant human topoisomerase 2alpha assessed as relaxation of supercoiled plasmid pBR322 DNA at 100 uM by agarose gel electrophoresis (reference value: 81%)
[7] = biological target: DNA topoisomerase 2-alpha (Homo sapiens) (UniProt P11388); assay: Inhibition of recombinant human topoisomerase 2alpha assessed as relaxation of supercoiled plasmid pBR322 DNA at 100 uM by agarose gel electrophoresis relative to control
[8] = biological target: T1, DNA topoisomerase 1 (Homo sapiens); assay: Inhibition of recombinant human topoisomerase 1 assessed as relaxation of supercoiled plasmid pBR322 DNA at 100 uM by agarose gel electrophoresis relative to control
[9] = biological target: DNA topoisomerase 2-alpha (Homo sapiens) (UniProt P11388); assay: Inhibition of recombinant human topoisomerase 2alpha assessed as relaxation of supercoiled plasmid pBR322 DNA at 20 uM by agarose gel electrophoresis (reference value: […]%)
[10] = Genotoxicity in human HCT-15 cells assessed as production of Ub1-gamma-H2AX at 100 nM and measured by western blot analysis; assay type: toxicity, cell-based; conditions: hct-15, 0.1 µM
[11] = Genotoxicity in human HCT-15 cells assessed as production of gamma-H2AX at 100 nM and measured by western blot analysis; assay type: toxicity, cell-based; conditions: hct-15, 0.1 µM
[12] = Genotoxicity in human HCT-15 cells assessed as production of fragmented DNA tails at 100 nM and measured by comet assay; assay type: toxicity, cell-based; conditions: hct-15, 0.1 µM
[13] = Genotoxicity in human HCT-15 cells assessed as production of Ub1-gamma-H2AX at 1 nM and measured by western blot analysis; assay type: toxicity, cell-based; conditions: hct-15, 0.001 µM
[14] = Genotoxicity in human HCT-15 cells assessed as production of gamma-H2AX at 1 nM and measured by western blot analysis; assay type: toxicity, cell-based; conditions: hct-15, 0.001 µM
[15] = Genotoxicity in human HCT-15 cells assessed as production of fragmented DNA tails at 1 nM and measured by comet assay; assay type: toxicity, cell-based; conditions: hct-15, 0.001 µM
[16] = biological target: T1, DNA topoisomerase 1 (Homo sapiens); assay: Inhibition of recombinant human topoisomerase 1 assessed as relaxation of supercoiled plasmid pBR322 DNA at 20 uM by agarose gel electrophoresis relative to control

| SMILES | inhibition [1] | inhibition [2] | inhibition [3] | inhibition [4] | inhibition [5] | inhibition [6] | IC50 (DU-145) | IC50 (HCT-15) | IC50 (HeLa) | IC50 (T47D) | further results |
| --- | --- | --- | --- | --- | --- | --- | --- | --- | --- | --- | --- |
| OC1c2ccccc2-c2nc(-c3ccc(OC(F)(F)F)cc3)cc(-c3ccccc3)c21 (stereo not given) | 26.8% | 61.2% | 8.7% |  |  |  | > 50 µM | > 50 µM | > 50 µM | > 50 µM |  |
| O=C1c2ccccc2-c2nc(-c3ccccc3)cc(-c3ccccc3)c21 |  |  |  |  |  |  |  |  |  |  | inhibition [7]: 2.5% |
| O=C1c2ccccc2-c2nc(-c3ccccc3O)cc(-c3ccccc3)c21 |  |  |  |  |  |  |  |  |  |  | inhibition [8]: 0% |
| CC[C@@]1(O)C(=O)OCc2c1cc1n(c2=O)Cc2cc3ccccc3nc2-1 [CAMPTOTHECIN] |  |  |  |  |  |  | 0.21 µM |  | 0.23 µM | 0.09 µM | Activity [10]: Toxic; Activity [11]: Toxic; Activity [12]: Toxic; Activity [13]: Non-Toxic; Activity [14]: Non-Toxic; Activity [15]: Non-Toxic |
| OC1c2ccccc2-c2nc(-c3ccc(C(F)(F)F)cc3)cc(-c3ccccc3)c21 (stereo not given) | 13.8% | 51.2% | 9.9% |  |  |  | 338 µM | > 50 µM | > 50 µM | 24.8 µM |  |
| OC1c2ccccc2-c2nc(-c3ccccc3C(F)(F)F)cc(-c3ccccc3)c21 (stereo not given) | 7.2% | 52.2% | 8.1% |  |  |  | > 50 µM | > 50 µM | > 50 µM | > 50 µM |  |
| O=C1c2ccccc2-c2nc(-c3ccc(OC(F)(F)F)cc3)cc(-c3ccccc3)c21 |  |  |  | 34.3% | 3.7% | 6.5% | 9.63 µM | 9.7 µM | 35.5 µM | 2.69 µM |  |
| OC1c2ccccc2-c2nc(-c3ccccc3)cc(-c3ccccc3)c21 (stereo not given) |  |  |  |  |  |  |  |  |  |  | inhibition [16]: 0% |

More lines, main results first:

| inhibition [1] | inhibition [2] | inhibition [3] | inhibition [4] | inhibition [5] | inhibition [6] | SMILES | IC50 (DU-145) | IC50 (HCT-15) | IC50 (HeLa) | IC50 (T47D) | further results |
| --- | --- | --- | --- | --- | --- | --- | --- | --- | --- | --- | --- |
|  |  |  | 35% | 0% | 0.6% | O=C1c2ccccc2-c2nc(-c3ccccc3OC(F)(F)F)cc(-c3ccccc3)c21 | 10.7 µM | 14.7 µM | > 50 µM | > 50 µM |  |
|  |  |  | 81.9% | 22.5% | 92.2% | O=C1c2ccccc2-c2nc(-c3cccc(C(F)(F)F)c3)cc(-c3ccccc3)c21 | 15.2 µM | 21.5 µM | > 50 µM | > 50 µM | inhibition [9]: 3.4% |
